For one data set, the system named is gastric acidity. Briefly: SAN-15-CO1C trial: gastric pH monitoring, omeprazole powder with or without antacid. Format: in vivo, human. The conditions noted are these: omeprazole 40 mg, administered 1 hour pre-meal, 10 subjects.
A further data set can be described thus: clinical. The settings on record: human, plasma, oral, 40 mg.

Molecules are shown by their SMILES.

Description for clinical: Pharmacokinetic parameters disclosed herein include: (1) parameters obtained directly from the data without interpolation, including plasma omeprazole concentration, peak omeprazole plasma concentration (Cmax), and time to peak omeprazole plasma concentration (Tmax); (2) terminal elimination rate constant (kel) determined from a log-linear regression analysis of the terminal plasma omeprazole concentrations; (3) terminal elimination half-life (t1/2) calculated as 0.693/kel; (4) area under the omeprazole plasma concentration-time curve from time zero to time “t” (AUCo-t), calculated using the trapezodial rule with the plasma concentration at time “t” being the last measurable concentration; (5) area under the omeprazole plasma concentration-time curve from time zero to time infinity (AUC0-inf), calculated as AUC0-t+Ct/kel, where Ct is the last measurable plasma concentration and kel is the terminal elimination rate constant defined above.
Blood samples (10 mL) were taken within 30 minutes predose and up to 12 hours postdose; eg, postdose at 5, 10, 15, 30, 45, 60, 90, 120, 180, 240, 300, 360 minutes, and up to 12 hours in some studies.
(§1) This trial protocol is designed as a single-dose crossover trial. […] Each dose was followed by a 7-14 day washout. The same treatment was administered to all subjects in each trial period:
For the periods including omeprazole powder plus tablet administration, the subject received omeprazole powder administered directly onto the dorsal mid-tongue Immediately thereafter, subjects were given one chewable antacid tablet, which they began chewing. The subject continued to chew the tablet while mixing it with omeprazole powder, and carefully avoided swallowing the powder immediately. One minute after initiating chewing (and after completely swallowing trial medications), each subject drank 120 mL of water, swishing the oral contents before swallowing.
Pharmacokinetic evaluations include plasma omeprazole and esomeprazole concentration over time; and plasma omeprazole and esomeprazole C., Tmax, kel, T1/2, AUC(0-t), and AUC(0-inf).
Protocol for gastric acidity: Pharmacodynamic parameters disclosed herein include: (1) mean gastric acid concentration; (2) onset time of gastric pH increase; (3) gastric pH over time; (4) length of time gastric pH is >4; (5) percentage (%) of time gastric pH is time pH>4 (in figures as “% time pH>4”); (6) median gastric pH; and (7) integrated gastric acidity, which is expressed as mM acid×time, (mmol acid×hr/L) is calculated as the cumulative time-weighted average of mean gastric acid concentration, as follows:
as §1
For periods requiring a meal, subjects fasted for at least 10 hours and were allowed water ad libitum until 2 hours prior to administration. Gastric pH monitoring was recorded for up to 11 hours beginning at time zero. The standard breakfast was ingested over 30 minutes beginning 90 minutes after the initiation of pH monitoring.
For periods including dosing after a meal, subjects fasted for at least 10 hours. On Day 0, ninety minutes of probe pH monitoring was started prior to initiating ingestion of the standardized breakfast, which was eaten within 30 minutes. The pH monitoring continued for 9.5 hours after initiating ingestion of breakfast. […]

`COc1ccc2[nH]c([S+]([O-])Cc3ncc(C)c(OC)c3C)nc2c1` (stereo not shown) [Omeprazole Powder]: the “Median Integrated Gastric Acidity 0-210 min. Post-meal” value in the data set with gastric acidity amounted to 35 mmol·h/L. In “clinical”, this compound showed an area under the curve AUC(0-inf) of 225 ng·h/mL, an AUC(0-t) of 225 ng·h/mL and a maximum concentration (Cmax) of 186 ng/mL.

(Values after patent US20150011588A1, “Novel formulation, omeprazole antacid complex-immediate release for rapid and sustained suppression of gastric acid” (priority 2003, published 2015).)
